Source: patent US11970448B2, “Monomers capable of dimerizing in an aqueous solution, and methods of using same” (CORNELL UNIVERSITY, priority 2011, dated 2024)
Counter-ions that a name gives are not always drawn. Like-named read-outs stand apart in the source and are kept apart here.

Target: T1, recominbant human tryptase, beta, from lung (Homo sapiens, UniProt P20231)
T1 construct: purchased Promega or Enzo Life Sciences G5631 or BML-SE418
Assay: Inhibition of tryptase activity by monomers and multimers (Boc-Gln-Ala-Arg-AMC fluorescence)
Assay type: biochemical
Conditions: monomers against tryptase
Description: Stock solutions of recominbant human tryptase, beta, from lung (Promega: catalog number G5631, or Enzo Life Sciences: catalog number BML-SE418) were made at 30 μM, in solution with 5 μM heparin sulfate and 1 M NaCl. Monomer tryptase inhibitor stock solutions were made at 50 mM in DMSO. Test substance plates were made at 1.2× the final concentration in assay buffer (50 mM HEPES, 150 mM NaCl, 100 μM EDTA, pH 7.4, 0.02% Tween-20). A final concentration of 1 nM tryptase was used. When required, test substances were diluted in water immediately before use in 10-fold serial dilutions. After the indicated incubation time, the test subtance-tryptase solution at 1.2× concentration, was diluted into assay buffer containing a final concentration of 200 μM N-tert-butoxycarbonyl-Gln-Ala-Arg-AMC HBr [AMC=7-amino-4-methylcoumarin] (Boc-Gln-Ala-Arg-AMC; Enzo Life Sciences: catalog number BML-P237) to a final volume of 50 μl in black opaque round bottom 96 well plates (Corning, catalog number 3792). The release of fluorescent AMC was immediately measured every 30 seconds over 15-30 minutes at an excitation wavelength of 367 nm, monitoring emission at 468 nm on a Spectramax M5 (Molecular Devices) microplate reader. The Softmax Pro (Molecular Devices) and Graphpad prism software were used to determine Vmax, and concentration-response curve IC50s, respectively.

[1] = Table 5, read-out: Monomer IC50 range
[2] = entry marked (1:10), read-out: IC50 range group of additional monomers marked (1:10)
[3] = read-out: IC50 range group of additional monomers (boronic acid, benzooxaborole, ligands)

T1 sequence (P20231 31-275): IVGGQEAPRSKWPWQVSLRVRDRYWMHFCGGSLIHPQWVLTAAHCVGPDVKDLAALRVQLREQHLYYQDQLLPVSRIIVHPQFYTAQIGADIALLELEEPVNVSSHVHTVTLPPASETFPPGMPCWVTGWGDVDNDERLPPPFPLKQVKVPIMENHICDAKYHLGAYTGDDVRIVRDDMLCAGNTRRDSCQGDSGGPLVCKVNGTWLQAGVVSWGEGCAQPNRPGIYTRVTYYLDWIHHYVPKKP

SMILES | IC50 [1] | IC50 [2] | IC50 [3]
CC(C)(C)OC(=O)NCc1cccc(C2CCN(C(=O)c3cccc(NC(=O)C(O)C(C)(C)O)c3)CC2)c1 (centres unmarked) [T55D, tert-butyl 3-(1-(3-(2,3-dihydroxy-3-methylbutanamido)benzoyl)piperidin-4-yl)benzylcarbamate] | 0.0001 to 1 µM | 0.0001 to 1 µM | 
NCc1cccc(C2CCN(C(=O)c3cccc(NC(=O)NCC(O)C(F)(F)F)c3)CC2)c1 (centres unmarked) [CF17, 1-(3-(4-(3-(aminomethyl)phenyl)piperidine-1-carbonyl)phenyl)-3-(3,3,3-trifluoro-2-hydroxypropyl)urea hydrochloride] | 0.0001 to 1 µM |  | 
NCc1cccc(C2CCN(C(=O)/C=C/c3ccc(O)c(C(N)=O)c3)CC2)c1 [T86, (E)-5-(3-(4-(3-(aminomethyl)phenyl)piperidin-1-yl)-3-oxoprop-1-enyl)-2-hydroxybenzamide] | 1 to 10 µM |  | 1 to 10 µM
NCc1cccc(C2CCN(C(=O)c3cccc(O)c3O)CC2)c1 [T28, (4-(3-(aminomethyl)phenyl)piperidin-1-yl)(2,3-dihydroxyphenyl)methanone] | 1 to 10 µM |  | 1 to 10 µM
NCc1cccc(C2CCN(C(=O)Cc3cc(=O)oc4c(O)c(O)ccc34)CC2)c1 [T98] |  |  | 10 to 65 µM
CC(O)(Cn1ccc2ccc(C(=O)N3CCC(c4cccc(CN)c4)CC3)cc21)C(=O)O (centres unmarked) [T82, 3-(6-(4-(3-(aminomethyl)phenyl)piperidine-1-carbonyl)-1H-indol-1-yl)-2-hydroxy-2-methylpropanoic acid] | 0.0001 to 1 µM | 0.0001 to 1 µM | 
N=C(N)c1ccc2c(c1)C1(CCN(C(=O)c3cccc(-c4cccc(B(O)O)c4)c3)CC1)CO2 [T35SPAM, 3′-(5-carbamimidoyl-2H-spiro[benzofuran-3,4′-piperidine]-1′-ylcarbonyl)biphenyl-3-ylboronic acid] |  |  | 0.0001 to 1 µM
NCc1cccc(C2CCN(C(=O)C3CC4CC3C(O)C4O)CC2)c1 (racemic) [T140RACEENDO, (±) endo (4-(3-(aminomethyl)phenyl)piperidin-1-yl)-(5,6-syn-dihydroxybicyclo[2.2.1]heptan-2-yl)methanone] |  |  | 1 to 10 µM
NCc1cccc(C2CCN(C(=O)c3cccc(NC(=O)c4ccc(O)c(O)c4)c3)CC2)c1 [T71, N-(3-(4-(3-(aminomethyl)phenyl)piperidine-1-carbonyl)phenyl)-3,4-dihydroxybenzamide] | 0.0001 to 1 µM |  | 0.0001 to 1 µM
NCc1cccc(C2CCN(C(=O)c3cccc(NC(=O)c4cccc(O)c4O)c3)CC2)c1 [T70, N-(3-(4-(3-(aminomethyl)phenyl)piperidine-1-carbonyl)phenyl)-2,3-dihydroxybenzamide] | 0.0001 to 1 µM |  | 0.0001 to 1 µM
NCc1cccc(C2CCN(C(=O)c3cc4ccc(B(O)O)cc4[nH]3)CC2)c1 [T59, 2-(4-(3-(aminomethyl)phenyl)piperidine-1-carbonyl)-1H-indol-6-ylboronic acid] | 1 to 10 µM |  | 1 to 10 µM
CSc1sc(C(=O)N2CCC3(CC2)COc2ccc(CN)cc23)cc1-c1cccc2c1COB2O [T117SPIRO] |  |  | 0.0001 to 1 µM
CC(O)(COc1cccc(C(=O)N2CCC(c3cccc(CN)c3)CC2)c1)C(=O)O (centres unmarked) [T72, 3-(3-(4-(3-(aminomethyl)phenyl)piperidine-1-carbonyl)phenoxy)-2-hydroxy-2-methylpropanoic acid] | 0.0001 to 1 µM |  | 0.0001 to 1 µM
NCc1cccc(C2CCN(C(=O)c3cccc(NC(=O)C(=O)C4(O)CCC4)c3)CC2)c1 [T21, N-(3-(4-(3-(aminomethyl)phenyl)piperidine-1-carbonyl)phenyl)-2-(1-hydroxycyclobutyl)-2-oxoacetamide] | 0.0001 to 1 µM |  | 
NCc1ccc(C(=O)NCc2ccc(OCC(=O)N3C[C@H](O)[C@@H](O)C3)cc2)cc1 [CF1, 4-(aminomethyl)-N-(4-(2-((3S,4S)-3,4-dihydroxypyrrolidin-1-yl)-2-oxoethoxy)benzyl)benzamide hydrochloride] | 10 to 65 µM |  | 
NCc1cccc(C2CCN(C(=O)c3cccc(OCC(O)(C(=O)O)c4ccccc4)c3)CC2)c1 (centres unmarked) [T73, 3-(3-(4-(3-(aminomethyl)phenyl)piperidine-1-carbonyl)phenoxy)-2-hydroxy-2-phenylpropanoic acid] | 0.0001 to 1 µM |  | 0.0001 to 1 µM
NCc1ccc2c(c1)C1(CCN(C(=O)c3ccc(O)c(O)c3)CC1)CO2 [T2SPIRO, (5-(aminomethyl)-2H-spiro[benzofuran-3,4′-piperidine]-1′-yl)(3,4-dihydroxyphenyl)methanone] | 0.0001 to 1 µM |  | 0.0001 to 1 µM
NCc1cccc(C2CCN(C(=O)/C=C/c3ccc(CO)c(O)c3)CC2)c1 [T41, (E)-1-(4-(3-(aminomethyl)phenyl)piperidin-1-yl)-3-(3-hydroxy-4-(hydroxymethyl)phenyl)prop-2-en-1-one] | 0.0001 to 1 µM |  | 0.0001 to 1 µM
CC(C)(C)ONC(=O)c1ccc(C(=O)N2CCC(c3cccc(CN)c3)CC2)cc1O [T75AOTB] |  |  | 1 to 10 µM
NCc1cccc(C2CCN(C(=O)c3ccc(O)c(CO)c3)CC2)c1 [T65, (4-(3-(aminomethyl)phenyl)piperidin-1-yl)(4-hydroxy-3-(hydroxymethyl)phenyl)methanone] | 0.0001 to 1 µM |  | 0.0001 to 1 µM

SMILES | IC50 [1] | IC50 [2] | IC50 [3]
NCc1cccc(C2CCN(C(=O)c3ccc(B(O)O)c4cccnc34)CC2)c1 [T51] |  |  | 10 to 65 µM
NCc1cccc(C2CCN(C(=O)c3cccc(OCC(=O)N4C[C@@H](O)[C@@H](O)C4)c3)CC2)c1 [T29, 2-(3-(4-(3-(aminomethyl)phenyl)piperidine-1-carbonyl)phenoxy)-1-((3S,4R)-3,4-dihydroxypyrrolidin-1-yl)ethanone] | 1 to 10 µM |  | 
NCc1cccc(C2CCN(C(=O)c3ccc(C(=O)NOc4ccccc4)c(O)c3)CC2)c1 [T75AP] |  | 0.0001 to 1 µM | 
COc1cc(C(=O)N2CCC(c3cccc(CN)c3)CC2)cc(O)c1O [T104] |  |  | 0.0001 to 1 µM
NCc1cccc(C2CCN(C(=O)C3CC4CCC3C(O)C4O)CC2)c1 (racemic) [T142EXOANTI, (±) endo (4-(3 (aminomethyl)phenyl)piperidin-1-yl)(-5,6-anti-dihydroxybicyclo[2.2.2]octan-2-yl)methanone] |  |  | 10 to 65 µM
NCc1cccc(C2CCN(C(=O)Cc3cc(B(O)O)ccc3F)CC2)c1 [T57, 3-(2-(4-(3-(aminomethyl)phenyl)piperidin-1-yl)-2-oxoethyl)-4-fluorophenylboronic acid] | 1 to 10 µM |  | 1 to 10 µM
NCc1cccc(C2CCN(C(=O)c3ccc(O)c(O)c3O)CC2)c1 [T68, (4-(3-(aminomethyl)phenyl)piperidin-1-yl)(2,3,4-trihydroxyphenyl)methanone] | 1 to 10 µM |  | 1 to 10 µM
CSc1sc(C(=O)N2CCC3(CC2)COc2ccc(CN)cc23)cc1-c1cccc(B(O)O)c1 [T116SPIRO] |  | 0.0001 to 1 µM | 
NCc1cccc(C2CCN(C(=O)c3cc4c(B(O)O)cccc4[nH]3)CC2)c1 [T32, 2-(4-(3-(aminomethyl)phenyl)piperidine-1-carbonyl)-1H-indol-4-ylboronic acid] | 1 to 10 µM |  | 1 to 10 µM
NCc1ccc(F)c(C2CCN(C(=O)c3cccc4ccc(B(O)O)cc34)CC2)c1 [T11F, 8-(4-(5-(aminomethyl)-2-fluorophenyl)piperidine-1-carbonyl)naphthalen-2-ylboronic acid] | 1 to 10 µM |  | 1 to 10 µM
NCc1cccc(C2CCN(C(=O)c3ccc(C(N)=O)c(O)c3)CC2)c1 [T75, 4-(4-(3-(aminomethyl)phenyl)piperidine-1-carbonyl)-2-hydroxybenzamide] | 1 to 10 µM |  | 1 to 10 µM
C[C@]1(O)CN(c2cccc(C(=O)N3CCC(c4cccc(CN)c4)CC3)c2)C(=O)[C@H]1O [CMI9321, 1-{3-[4-(3-aminomethyl-phenyl)-piperidine-1-carbonyl]-phenyl}-3,4-dihydroxy-4-methyl-pyrrolidin-2-one hydrochloride] |  | 0.0001 to 1 µM | 
Cc1c(CC(=O)N2CCC(c3cccc(CN)c3)CC2)c(=O)oc2c(O)c(O)ccc12 [T101] | 0.0001 to 1 µM |  | 0.0001 to 1 µM
NCc1cccc(C2CCN(C(=O)c3cc4cc(O)ccc4[nH]3)CC2)c1 [T31A, (4-(3-(aminomethyl)phenyl)piperidin-1-yl)(5-hydroxy-1H-indol-2-yl)methanone] | 0.0001 to 1 µM |  | 
NCc1cccc(C2CCN(C(=O)c3ccc(-c4ccc5c(c4)COB5O)cc3)CC2)c1 [T36, (4-(3-(aminomethyl)phenyl)piperidin-1-yl)(4-(1-hydroxy-1,3-dihydrobenzo[c][1,2]oxaborol-5-yl)phenyl)methanone] | 1 to 10 µM |  | 1 to 10 µM
NCc1ccc2c(c1)C1(CCN(C(=O)c3cccc(-c4cccc(B(O)O)c4F)c3)CC1)CO2 [T133SPIRO] |  |  | 0.0001 to 1 µM
NCc1cccc(C2CCN(C(=O)c3ccc(Cl)c(Cl)c3)CC2)c1 [CF5, (4-(3-(aminomethyl)phenyl)piperidin-1-yl)(3,4-dichlorophenyl)methanone] | 0.0001 to 1 µM |  | 
Cc1c(CC(=O)N2CCC(c3cccc(CN)c3)CC2)c(=O)oc2cc(O)c(O)cc12 [T99] |  |  | 1 to 10 µM
CONC(=O)c1ccc(/C=C/C(=O)N2CCC(c3cccc(CN)c3)CC2)cc1O [T76A, (E)-4-(3-(4-(3-(aminomethyl)phenyl)piperidin-1-yl)-3-oxoprop-1-enyl)-2-hydroxy-N-methoxybenzamide] | 0.0001 to 1 µM |  | 0.0001 to 1 µM
